{"source": "patent US12144886B2", "about": "“Perineural administration of resiniferatoxin for treatment of maladaptive pain” (Sorrento Therapeutics, Inc., priority 2018, dated 2024)", "key": {"[1]": {"system": "declawed cat with maladaptive pain", "experiment": "Physical exam and behavioral findings in a declawed cat after perineural RTX", "format": "in vivo", "settings": "one cat", "procedure": "(§1) Tolerance, safety, and analgesic effects of RTX administration were evaluated in a single declawed cat with maladaptive pain. […] The cat also presented a self-limiting decreased appetite for 12 hours post injection.\nA summary of the pre- and post-RTX injection physical exam results relevant to pain related to the declawed digits are presented in Table 4.\nAdditionally, the cat had shown elimination behavior issues, aggressivity when manipulated, and diminished attention seeking before treatment. Each of these behavioral issues related to the chronic maladaptive pain state reversed following the perineural administration of RTX, even though the cat was believed to have been in pain for years prior to this treatment."}, "[2]": {"system": "declawed cat with maladaptive pain", "experiment": "Client Specific Outcome Measure (CSOM) in a declawed cat after perineural RTX nerve blocks", "format": "in vivo", "set-up": "key to CSOM Total score / CSOM Q1 Extending distal limb; “kneading”; stretching / CSOM Q2 Running / CSOM Q3 Jumping down from bed and window: 1 = no problem; 2 = mild difficulty; 3 = moderate; 4 = severe difficulty; 5 = impossible", "settings": "one cat; for CSOM Q1 Extending distal limb; “kneading”; stretching / CSOM Q2 Running / CSOM Q3 Jumping down from bed and window / CSOM Total score: 2.5 μg/forelimb perineural", "procedure": "Each dose of 5 μg/cat or 2.5 μg/forelimb will be formulated in 1 cc insulin syringes by diluting 0.1 mL: (2.5 μg) of RTX in 0.9 mL sterile saline for injection immediately before use. For treatment, a total of 1.0 mL (2.5 μg) will be injected as nerve blocks, distributed equally (0.25 ml per injection site) over 4 injection sites for each forelimb.\nFour point nerve blocks are performed by injection of 0.25 mL RTX each into the 1) superficial branches of the radial nerve, 2) dorsal branch of the ulnar nerve, 3) median nerve and superficial branch of the palmar branch of the ulnar nerve, and 4) deep branch of the palmar branch of the ulnar nerve. The nerve blocks for each forelimb are performed following a published technique for locoregional block of the manus in cats (Enomoto et al. (2016) J. Feline Med. Surg. 18:838-845). To block the superficial branches of the radial nerve (RSbr nn), the limb is positioned with the dorsal aspect facing upwards and the carpus in 180° of extension. A 25 G×⅝-inch needle is inserted subcutaneously (SC) from a point at the center of the limb at the level of the antebrachiocarpal joint. The needle is advanced approximately 10 mm SC at a 10-20° angle to the long axis of the limb with the bevel facing up. Once the tip of the needle is 3-5 mm from the confluence point of the accessory cephalic and cephalic veins, the injection is made (0.25 mL). To block the dorsal branch of the ulnar nerve (UDbr n), the limb is positioned with the lateral aspect facing upwards. A point is located lateral to and at the same level as the accessory carpal bone (ACb), positioned between the ACb and the styloid process of the ulna (SpU). A 25 G×⅝-inch needle is inserted SC distal to proximal, so the tip lies at the midpoint of the groove formed between ACb and the SpU, and then the injection is made (0.25 mL). To block the median nerve (M n) and superficial branch of the palmar branch of the ulnar nerve (UPbrS n), the limb is positioned with the palmar aspect facing upwards. A 25 G×⅝-inch needle is inserted SC at the distal border of the carpal pad and approximately 5 mm lateral to it, perpendicular to the long axis of the metacarpus, with the bevel facing up. The needle is inserted SC until the point is located two-thirds of the distance from the lateral aspect of the limb to the medial aspect. Two-thirds of the injectate volume is deposited at this point and the remaining volume is injected while the needle is withdrawn (0.25 mL). Gentle massage is applied to the injected volume under the skin for 5 seconds. To block the deep branch of the palmar branch of the ulnar nerve (UPbrDp n), the limb is positioned with the palmar aspect facing upwards. A 25 G×⅝-inch needle is inserted almost perpendicular to the ACb in a mediolateral direction such that the needle contacts the medial palmar aspect of the midpoint of the ACb with the bevel facing up. The needle is then redirected dorsally and advanced on the medial side of the ACb 2-3 mm until it penetrates the flexor retinaculum, and then the injection is made (0.25 mL).\nThe effectiveness of the injection with RTX is assessed at days 3, 7, and 14 using owner videography for qualitative assessment (jumping, manipulation of the limb), and cats will also be evaluated using the Feline Musculoskeletal Pain Index (FMPI) and the Client Specific Outcome Measure (CSOM).\nFor CSOM, owners are asked to score three attributes (Q1) Extending distal limb, “kneading”; stretching, (Q2) Running; and (Q3) Jumping down from bed and window using a scale of 1-5 where 1=no problem, 2=mild difficulty, 3=moderate, 4=severe difficulty, and 5=impossible.\nas §1"}}, "data": [{"compound": "C=C(C)[C@]12C[C@@H](C)[C@@]34O[C@](Cc5ccccc5)(O[C@@H]1[C@@H]3C=C(COC(=O)Cc1ccc(O)c(OC)c1)C[C@]1(O)C(=O)C(C)=C[C@@H]41)O2", "note": "[RTX, resiniferatoxin]", "values": [{"measurement": "Behavioral issues (elimination behavior issues, aggressivity when manipulated, diminished attention seeking)", "setting": "[1]; following perineural administration", "result": "reversed"}, {"measurement": "Overall conclusion from CSOM and FMPI scores", "setting": "[1]; 2.5 μg/forelimb perineural", "result": "safe and effective"}, {"measurement": "Persistence of effects", "setting": "[1]; 2.5 μg/forelimb perineural", "result": "at least 14 days"}, {"measurement": "CSOM Q1 Extending distal limb; “kneading”; stretching", "setting": "[2]; Day 0 (baseline)", "result": 3}, {"measurement": "CSOM Q2 Running", "setting": "[2]; Day 0 (baseline)", "result": 3}, {"measurement": "CSOM Q3 Jumping down from bed and window", "setting": "[2]; Day 0 (baseline)", "result": 2}, {"measurement": "CSOM Total score", "setting": "[2]; Day 0 (baseline)", "result": 8}, {"measurement": "CSOM Q1 Extending distal limb; “kneading”; stretching", "setting": "[2]; Day 3", "result": 2}, {"measurement": "CSOM Q2 Running", "setting": "[2]; Day 3", "result": 3}, {"measurement": "CSOM Q3 Jumping down from bed and window", "setting": "[2]; Day 3", "result": 2}, {"measurement": "CSOM Total score", "setting": "[2]; Day 3", "result": 7}, {"measurement": "CSOM Q1 Extending distal limb; “kneading”; stretching", "setting": "[2]; Day 7", "result": 1}, {"measurement": "CSOM Q2 Running", "setting": "[2]; Day 7", "result": 2}, {"measurement": "CSOM Q3 Jumping down from bed and window", "setting": "[2]; Day 7", "result": 2}, {"measurement": "CSOM Total score", "setting": "[2]; Day 7", "result": 5}, {"measurement": "CSOM Q1 Extending distal limb; “kneading”; stretching", "setting": "[2]; Day 14", "result": 2}, {"measurement": "CSOM Q2 Running", "setting": "[2]; Day 14", "result": 2}, {"measurement": "CSOM Q3 Jumping down from bed and window", "setting": "[2]; Day 14", "result": 2}, {"measurement": "CSOM Total score", "setting": "[2]; Day 14", "result": 6}, {"measurement": "CSOM Q1 Extending distal limb; “kneading”; stretching", "setting": "[2]; Screening (baseline)", "result": 3}, {"measurement": "CSOM Q2 Running", "setting": "[2]; Screening (baseline)", "result": 3}, {"measurement": "CSOM Q3 Jumping down from bed and window", "setting": "[2]; Screening (baseline)", "result": 2}, {"measurement": "CSOM Total score", "setting": "[2]; Screening (baseline)", "result": 8}, {"measurement": "CSOM: extending distal limb, kneading, stretching and running", "setting": "[2]; after injection", "result": "showed improvement"}]}]}
